Experimental data reported in PMC12040169 (PLOS Biology, 2025).

Experiment: in vitro
Settings: human, hela cells, % viability

Compound | viability at 28.5 h, 10 µM [%]
Cc1ccc(S(=O)(=O)N2CCN(C)CC2)cc1NC(=O)c1ccc(Br)o1 [CBK034260C] | 99.3
COc1ccc(F)cc1-c1ccc(CC2(C(=O)NCc3cccs3)CCOCC2)cc1 [CBK285540] | 112
O=[N+]([O-])c1ccc(N2CCN(S(=O)(=O)Cc3ccccc3)CC2)cc1N1CCN(Cc2ccccc2)CC1 [CBK264951] | 101
NC(=O)CN1CCC(Oc2cncc(OCC3COc4ccccc4O3)n2)C1 (stereo not shown) [CBK084372] | 98.2
COc1cc(C2SCC(=O)Nc3c2c(-c2ccccc2)nn3-c2ccccc2)cc(OC)c1OC (stereo not shown) [CBK265025] | 108
Cc1ccc(-c2noc([C@@H]3Cc4[nH]cnc4CN3C(=O)c3cccs3)n2)cc1 [CBK288957] | 82.2
CCc1nc2ccc(C(=O)N(C)CCN(C)C)cn2c1N(CC)C(=O)NCCc1ccccc1 [CBK147036] | 96.4
Cc1nc2ccc(NC(=O)CCn3nc(C)c(Cl)c3C)cc2s1 [CBK281634] | 106
NC(=O)CN1CC2(CCN(CC3COc4ccccc4O3)CC2)c2ccccc21 (stereo not shown) [CBK143960] | 89.4
CCn1cc(C(C)NC(=S)Nc2ccc(OC)cc2OC)c(C)n1 (stereo not shown) [CBK266950] | 90
OC(CN1CCN(Cc2ccc3c(c2)OCO3)CC1)C(F)(F)F (stereo not shown) [CBK074833] | 108
COc1ccc(-c2ccc3ccc(NC(=O)C(C)C)nc3n2)cc1C [CBK073665] | 92.3
CCCc1c(OCCCCc2nnn[nH]2)ccc(C(C)=O)c1O [CBK007468] | 90.4
CCc1ccc(OC(C)c2nnc(SCC(=O)N3c4ccccc4Sc4ccccc43)n2C)cc1 (stereo not shown) [CBK268058] | 92.3
CCNC(=O)Nc1ccc([C@@H](O)[C@H]2COCC(=O)N2CC)cc1 [CBK289696] | 93.5
Cc1cc(-c2cn3ccnc3c(NC3CC3)n2)cc(C)c1O [CBK066747] | 86.5
Cc1ccc2[nH]c(CN3CCC(O)C3)cc(=O)c2c1 (stereo not shown) [CBK307690] | 91.5
COC(=O)CNC(=O)c1ccc(S(=O)(=O)N2CCOCC2)cc1 [CBK264873] | 109
CC(=O)N[C@H](Cc1c[nH]c2ccccc12)C(=O)N1CCN(c2ccc(C(F)(F)F)cc2)CC1 [CBK091314] | 94.5
NC(=O)CSc1nnc(SCc2cccc3ccccc23)s1 [CBK266150] | 106
CNC(=O)C1(Cc2ccccc2-c2cccs2)CCN(C(=O)c2cccc(OC)c2)CC1 [CBK285907] | 85.7
CCCS(=O)(=O)c1ccc(NC(=O)Nc2ccc(Cl)cc2Cl)cc1 [CBK008564] | 76.1

Compound | viability at 28.5 h, 10 µM [%]
Cc1c(C(=O)Nc2sc3c(c2C(=O)NCc2cccnc2)CCC3)oc2ccccc12 [CBK269491] | 87.8
O=C(Nc1ccc(C(F)(F)F)cc1)c1cc(Br)cnc1NCc1cccnc1 [CBK076419] | 111
C=CCn1c(COc2cccc3ccc(C)nc23)nnc1SC [CBK266608] | 94.2
Nc1cccc(-c2nccnc2NCCc2ccccn2)c1 [CBK037512] | 102
NC(=O)C1(Cc2ccc(-c3ccccc3)cc2)CCN(C(=O)c2ccccc2)CC1 [CBK285789] | 95.1
Cc1cc(C)n2nc(C(=O)N/N=C/c3ccc(O)cc3)nc2n1 [CBK261765] | 85.4
Cc1nn(C)cc1CNC(=O)C1C2CCC(C2)C1C(=O)O (stereo not shown) [CBK286875] | 89.3
O=C(Cc1cccc2ccccc12)Nc1ccccc1C(=O)O [CBK266325] | 100
Cn1cc(-c2ncc(OCCc3c[nH]c4ccccc34)nc2N)cn1 [CBK145166] | 88.3
Nc1nnc(SCc2cccc3ccccc23)[nH]1 [CBK264830] | 103
COC(=O)c1ccc(NC(=O)CNc2ccccc2)cc1 [CBK268064] | 110
CCn1nc(CO)c2c1CCN(CC(=O)NCc1cccs1)C2 [CBK307638] | 92.8
CCn1cc(C(=O)O)c(=O)c2cc(F)c(N3CCN(C(=S)Nc4cc(OC)ccc4OC)CC3)cc21 [CBK265831] | 85.7
CCCN1CCC(NC(=O)Cn2nnc3ccccc3c2=O)CC1 [CBK305581] | 102
CCOC(=O)C1CCN(C(=O)c2cccnc2NCc2ccc3c(c2)OCO3)CC1 [CBK160106] | 118
O=S(=O)(Nc1cccc2[nH]ccc12)c1ccc(F)cc1F [CBK153546] | 62.2
CC(C)(C)OC(=O)N1CCN(C(=O)c2cc(-c3cccnc3)on2)CC1 [CBK305648] | 88.7
O=C(Nc1cccc(Cl)c1)c1cccc(NC(=O)c2ccccc2C(=O)O)c1 [CBK287122] | 81.8
COc1ccc(-c2cncc(N3CCN(c4cccc5[nH]ccc45)CC3)n2)cc1 [CBK066087] | 97.2
CC(Oc1ccc(F)cc1)C(=O)NCCN1CCOCC1 (stereo not shown) [CBK265508] | 99.4
O=C(O)Cn1nnnc1CN1CCc2ccccc2C1 [CBK287097] | 94.3
Cc1cc(C)n(CC(C)CNC(=O)NCCN2CCCCCC2=O)n1 (stereo not shown) [CBK305389] | 92

Compound | viability at 28.5 h, 10 µM [%]
COCCCNC(=S)Nc1ccc(N2CCOCC2)c2nonc12 [CBK266947] | 88.8
Cn1cc(C(=O)NC(Cc2cccs2)c2ccccn2)ccc1=O (stereo not shown) [CBK285209] | 112
CCN1/C(=C/C(=C/c2sc3ccccc3[n+]2CCCS(=O)(=O)[O-])OC)Sc2ccccc21 [CBK278203] | 99.7
CC(C)(C)C(=O)N1CCC(c2nc3ccccc3cc2N)CC1 [CBK285039] | 101
CC1(C)[C@H]2CC/C(=N/O)[C@]1(C)NC2=O [CBK006513] | 84.8
O=C(O)CCSCC(=O)c1ccc(OC(F)F)cc1 [CBK286991] | 84.6
O=C(O)c1sccc1Oc1ccc(F)cc1[N+](=O)[O-] [CBK066847] | 112
COc1cccc(OCC(=O)Nc2ccc(Cl)cc2C(=O)O)c1 [CBK264208] | 105
c1ccc2[nH]c(SCCN3CCOCC3)nc2c1 [CBK262593] | 89
CCOC(=O)N1CCC(NC(=O)c2ccc3nc4ccccc4c(=O)n3c2)CC1 [CBK294447] | 81.1
Cc1ccccc1NCC(=O)N/N=C\c1cc(Br)c(O)c(Br)c1 [CBK262120] | 87.7
Cc1ccc(OCC(=O)N2CCN(S(=O)(=O)c3ccc4ccccc4c3)CC2)cc1 [CBK264200] | 115
COc1ccc(-c2noc(CSc3nc4sc(C)c(C)c4c(=O)n3-c3ccccc3)n2)cc1 [CBK268264] | 100
COc1ccc(Sc2cc(C(F)(F)F)ccn2)cc1OC [CBK093762] | 92.5
CC(C)(C)OC(=O)N1CCC[C@@H]([C@H](O)c2nccs2)C1 [CBK284283] | 81
Oc1nc(CN2CCN(Cc3ccc4c(c3)OCO4)CC2)nc2ccccc12 [CBK074355] | 110
COc1cc(C(=O)N2CCC3(CC2)CC(=O)c2ccc(C)cc2O3)ccc1O [CBK166045] | 86.6
COc1ccc(N(Cc2cccnc2)C(=O)c2ccc(-c3ccccc3)[nH]c2=O)cc1 [CBK283089] | 105
Cc1cccc(CN2CCC(NC(=O)Cn3ccccc3=O)CC2)c1 [CBK305667] | 111
COc1ccc(CCNC(=O)c2cc(-c3ccc(C)o3)nc3ccccc23)cc1OC [CBK265486] | 117
Cc1cc2c(cc1C)N(C(=O)CSc1ncn[nH]1)C(C)(C)c1ssc(=S)c1-2 [CBK263786] | 96.3
O=C(CCCOc1ccc(Cl)cc1Cl)Nc1c[nH]c(=O)[nH]c1=O [CBK264235] | 113

Compound | viability at 28.5 h, 10 µM [%]
CCn1ncc(S(=O)(=O)N2CCCC(c3cccc(-c4cccc(OC)c4)n3)C2)c1C (stereo not shown) [CBK286155] | 96.8
COC(=O)CO[C@@H]1CO[C@H]2[C@@H]1OC[C@@H]2NC(=S)Nc1ccccc1 [CBK289459] | 88.3
C/C(=N\NC(=O)CC1(C)OCCO1)c1oc(C)cc1C [CBK022234] | 99.1
O=c1nc(C(F)(F)F)n2ccccc2n1 [CBK027683] | 97.2
Cc1cc(C(=O)NCc2ccc(-c3csnn3)cc2)n[nH]1 [CBK149314] | 88.8
Cc1ccc(S(=O)(=O)NC(C)C(=O)NCc2ccco2)cc1 (stereo not shown) [CBK266514] | 109
CN(c1ccccc1)c1cc(-c2cccc(O)c2)nc2ccnn12 [CBK037121] | 91
Cc1ccccc1-c1nc(S(=O)(=O)c2ccc(Cl)cc2)c(NCC2CCCO2)o1 (stereo not shown) [CBK267668] | 113
CC1=C(c2ccc(OC(C)(C)CN3CCCC3)cc2)C(C)CCC1 (stereo not shown) [CBK012357C] | 86.1
Cc1nc(C2CCN(C(=O)c3cccnc3)CC2)c2sccn12 [CBK282233] | 106
COc1ccc(C(=O)O)cc1NC(=S)NC(=O)c1ccc(-c2ccccc2)cc1 [CBK265064] | 99.5
c1ccc(-c2cc3nccc(-c4ccccc4)n3n2)cc1 [CBK287871] | 93.7
CC1CCCCN1C(=O)Cn1cnc2c(Cl)cc(Cl)cc2c1=O (stereo not shown) [CBK306149] | 90.3
COc1ccc2[nH]c3c(c2c1)CCN(C(C)=O)C31CCN(CCOc2ccccc2)C1 (stereo not shown) [CBK039626] | 85.5
CC(NC(=O)OC(C)(C)C)c1nnc(SCC(=O)N(C)C)o1 (stereo not shown) [CBK269932] | 88.3
CCN1CCN(c2ccc(NC(=O)c3ccc(OCc4ccccc4)cc3)cc2Cl)CC1 [CBK266683] | 78
O=C(CO)N1CC2(CCN(CCO)CC2)c2ccccc21 [CBK131507] | 79.7
COc1ccc(-c2csc(NC(=O)C(C)C)c2C(=O)O)cc1 [CBK286622] | 83.1
O=C(O)c1ccc(NS(=O)(=O)c2ccc(Br)cc2)cc1 [CBK034058] | 97.6
c1ccc(-c2nc3ccccc3nc2N2CCNCC2)cc1 [CBK269574C] | 85
COc1ccccc1-c1cnc2[nH]c(=O)n([C@@H](C)c3ccccc3)c2n1 [CBK064717] | 93.3
CCC1(C)CCCN(Cc2nnnn2-c2ccc(S(C)(=O)=O)cc2)C1 (stereo not shown) [CBK306180] | 113
